Key:
Test in all cases: absorbance of p-nitrophenol at […] nm
Assay type in all cases: biochemical
BuGUS = target: T1, BuGUS (Bacteroides uniformis, UniProt A0A078SUX9); details: 800 uM PNPG, optimal pH, 37 C, 50 mM HEPES
T1 sequence (A0A078SUX9 32-886 limits assumed): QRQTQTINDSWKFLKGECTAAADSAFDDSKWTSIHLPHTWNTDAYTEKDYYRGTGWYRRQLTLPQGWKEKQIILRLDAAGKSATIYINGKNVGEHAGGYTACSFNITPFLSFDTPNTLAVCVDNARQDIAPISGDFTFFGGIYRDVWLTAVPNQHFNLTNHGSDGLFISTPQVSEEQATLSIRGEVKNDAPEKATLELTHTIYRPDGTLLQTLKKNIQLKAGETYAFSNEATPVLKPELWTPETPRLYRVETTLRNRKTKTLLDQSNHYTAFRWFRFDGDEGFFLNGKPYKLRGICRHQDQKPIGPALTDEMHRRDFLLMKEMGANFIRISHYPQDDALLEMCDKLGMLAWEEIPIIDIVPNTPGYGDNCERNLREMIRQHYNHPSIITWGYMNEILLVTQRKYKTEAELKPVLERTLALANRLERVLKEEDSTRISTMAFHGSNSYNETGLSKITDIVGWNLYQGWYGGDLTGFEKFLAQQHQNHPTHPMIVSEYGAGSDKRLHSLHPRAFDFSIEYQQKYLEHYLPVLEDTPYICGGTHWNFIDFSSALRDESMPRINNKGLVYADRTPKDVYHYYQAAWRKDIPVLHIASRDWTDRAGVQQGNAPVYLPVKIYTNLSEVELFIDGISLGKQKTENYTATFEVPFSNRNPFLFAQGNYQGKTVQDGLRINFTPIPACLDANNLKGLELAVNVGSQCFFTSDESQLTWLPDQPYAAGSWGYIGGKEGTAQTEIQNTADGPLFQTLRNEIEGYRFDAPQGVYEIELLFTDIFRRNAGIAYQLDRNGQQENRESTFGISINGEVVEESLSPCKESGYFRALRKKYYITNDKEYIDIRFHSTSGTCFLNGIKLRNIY

BdGUS = target: T2, BdGUS (Phocaeicola dorei, UniProt Z9QL54SLC8); details: 800 uM PNPG, optimal pH, 37 C, 50 mM HEPES
T2 sequence (Z9QL54SLC8 25-879): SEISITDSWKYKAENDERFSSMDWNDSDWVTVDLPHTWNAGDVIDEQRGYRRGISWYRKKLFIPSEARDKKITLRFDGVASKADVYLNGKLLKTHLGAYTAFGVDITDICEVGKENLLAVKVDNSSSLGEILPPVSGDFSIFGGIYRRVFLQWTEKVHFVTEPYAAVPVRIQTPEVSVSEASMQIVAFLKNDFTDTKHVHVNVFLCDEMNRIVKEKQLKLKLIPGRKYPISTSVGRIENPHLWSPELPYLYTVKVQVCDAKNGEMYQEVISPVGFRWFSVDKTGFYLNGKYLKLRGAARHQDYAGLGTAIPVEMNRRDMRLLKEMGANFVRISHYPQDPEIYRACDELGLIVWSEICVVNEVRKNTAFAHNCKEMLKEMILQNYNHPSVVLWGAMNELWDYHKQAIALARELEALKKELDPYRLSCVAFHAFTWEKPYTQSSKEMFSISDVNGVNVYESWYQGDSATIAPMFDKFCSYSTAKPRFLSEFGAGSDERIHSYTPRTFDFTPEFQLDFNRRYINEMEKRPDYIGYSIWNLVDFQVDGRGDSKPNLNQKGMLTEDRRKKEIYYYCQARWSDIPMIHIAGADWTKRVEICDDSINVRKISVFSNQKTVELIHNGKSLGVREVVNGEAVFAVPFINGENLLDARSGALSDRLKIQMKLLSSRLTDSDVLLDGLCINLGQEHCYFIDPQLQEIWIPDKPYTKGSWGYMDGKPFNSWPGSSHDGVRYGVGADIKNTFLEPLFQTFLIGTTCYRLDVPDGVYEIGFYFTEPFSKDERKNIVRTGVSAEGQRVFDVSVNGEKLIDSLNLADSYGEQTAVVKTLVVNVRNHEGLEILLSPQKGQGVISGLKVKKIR

EcGUS = EcGUS (Escherichia coli, UniProt P05804); details: 800 uM PNPG, optimal pH (broad, up to 7.4), 37 C, 50 mM HEPES
PmGUS = target: T3, PmGUS (Parabacteroides merdae, UniProt K5ZWV5); details: 800 uM PNPG, optimal pH, 37 C, 50 mM HEPES
T3 sequence (K5ZWV5 20-826): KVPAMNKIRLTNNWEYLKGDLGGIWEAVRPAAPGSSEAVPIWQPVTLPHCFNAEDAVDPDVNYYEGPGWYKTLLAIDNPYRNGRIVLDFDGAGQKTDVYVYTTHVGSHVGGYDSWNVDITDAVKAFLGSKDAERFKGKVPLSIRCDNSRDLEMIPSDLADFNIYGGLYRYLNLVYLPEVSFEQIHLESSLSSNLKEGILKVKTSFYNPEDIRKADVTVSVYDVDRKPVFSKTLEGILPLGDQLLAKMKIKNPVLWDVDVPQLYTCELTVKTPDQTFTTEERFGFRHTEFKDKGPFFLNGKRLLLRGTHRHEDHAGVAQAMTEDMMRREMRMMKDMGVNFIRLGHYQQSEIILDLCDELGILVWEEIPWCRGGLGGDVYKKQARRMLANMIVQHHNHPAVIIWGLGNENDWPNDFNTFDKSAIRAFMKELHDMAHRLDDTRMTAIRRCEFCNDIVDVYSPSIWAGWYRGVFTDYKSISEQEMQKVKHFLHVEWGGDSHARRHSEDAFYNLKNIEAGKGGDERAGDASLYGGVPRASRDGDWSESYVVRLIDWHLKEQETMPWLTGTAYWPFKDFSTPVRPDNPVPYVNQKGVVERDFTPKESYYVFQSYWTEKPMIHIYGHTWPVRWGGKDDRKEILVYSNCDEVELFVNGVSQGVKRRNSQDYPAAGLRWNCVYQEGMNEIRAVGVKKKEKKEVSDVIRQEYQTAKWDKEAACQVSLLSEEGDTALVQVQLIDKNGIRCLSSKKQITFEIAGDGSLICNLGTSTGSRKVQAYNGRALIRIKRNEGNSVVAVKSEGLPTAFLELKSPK

EeGUS = target: T4, EeGUS (Lachnospira eligens, UniProt C4Z6Z2); details: 800 uM PNPG, pH 6.5, 37 C, 50 mM HEPES
T4 sequence (C4Z6Z2 1-611): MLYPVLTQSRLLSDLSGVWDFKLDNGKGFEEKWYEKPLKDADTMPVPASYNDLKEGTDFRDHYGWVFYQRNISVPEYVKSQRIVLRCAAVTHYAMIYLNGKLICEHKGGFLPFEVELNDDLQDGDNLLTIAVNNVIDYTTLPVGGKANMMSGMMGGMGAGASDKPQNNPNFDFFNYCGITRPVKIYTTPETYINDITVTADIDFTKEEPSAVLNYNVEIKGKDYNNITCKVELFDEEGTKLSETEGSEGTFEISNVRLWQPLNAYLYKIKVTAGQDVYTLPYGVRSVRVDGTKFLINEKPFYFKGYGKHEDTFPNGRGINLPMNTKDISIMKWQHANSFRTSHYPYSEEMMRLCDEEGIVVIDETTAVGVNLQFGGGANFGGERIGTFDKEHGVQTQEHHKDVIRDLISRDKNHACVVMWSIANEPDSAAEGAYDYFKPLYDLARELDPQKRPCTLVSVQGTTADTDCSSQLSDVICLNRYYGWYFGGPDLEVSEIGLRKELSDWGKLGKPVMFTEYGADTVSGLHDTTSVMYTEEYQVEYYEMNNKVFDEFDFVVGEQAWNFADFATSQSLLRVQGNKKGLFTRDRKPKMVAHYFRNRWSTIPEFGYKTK

BfGUS = BfGUS (Bacteroides fragilis, UniProt Q5LIC7); details: 800 uM PNPG, optimal pH, 37 C, 50 mM HEPES
Chain of BfGUS (Q5LIC7 38-693): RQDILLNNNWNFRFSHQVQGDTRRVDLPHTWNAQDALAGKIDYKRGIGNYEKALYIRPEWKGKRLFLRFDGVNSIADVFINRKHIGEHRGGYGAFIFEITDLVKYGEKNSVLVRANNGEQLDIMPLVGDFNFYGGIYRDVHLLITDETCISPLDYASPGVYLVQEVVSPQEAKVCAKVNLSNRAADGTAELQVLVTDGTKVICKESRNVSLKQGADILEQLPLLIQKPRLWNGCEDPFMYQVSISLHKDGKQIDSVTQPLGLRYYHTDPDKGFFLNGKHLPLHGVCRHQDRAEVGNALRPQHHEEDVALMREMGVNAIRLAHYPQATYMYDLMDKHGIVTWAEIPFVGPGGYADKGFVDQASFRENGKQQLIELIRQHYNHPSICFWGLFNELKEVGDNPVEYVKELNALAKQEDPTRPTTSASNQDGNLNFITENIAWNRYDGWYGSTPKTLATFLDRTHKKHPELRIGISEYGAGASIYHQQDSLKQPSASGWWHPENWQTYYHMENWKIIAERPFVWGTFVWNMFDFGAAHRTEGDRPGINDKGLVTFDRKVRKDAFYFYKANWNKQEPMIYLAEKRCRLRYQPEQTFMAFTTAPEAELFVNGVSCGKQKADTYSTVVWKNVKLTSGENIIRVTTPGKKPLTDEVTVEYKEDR

Chain of EcGUS (P05804 whole entry): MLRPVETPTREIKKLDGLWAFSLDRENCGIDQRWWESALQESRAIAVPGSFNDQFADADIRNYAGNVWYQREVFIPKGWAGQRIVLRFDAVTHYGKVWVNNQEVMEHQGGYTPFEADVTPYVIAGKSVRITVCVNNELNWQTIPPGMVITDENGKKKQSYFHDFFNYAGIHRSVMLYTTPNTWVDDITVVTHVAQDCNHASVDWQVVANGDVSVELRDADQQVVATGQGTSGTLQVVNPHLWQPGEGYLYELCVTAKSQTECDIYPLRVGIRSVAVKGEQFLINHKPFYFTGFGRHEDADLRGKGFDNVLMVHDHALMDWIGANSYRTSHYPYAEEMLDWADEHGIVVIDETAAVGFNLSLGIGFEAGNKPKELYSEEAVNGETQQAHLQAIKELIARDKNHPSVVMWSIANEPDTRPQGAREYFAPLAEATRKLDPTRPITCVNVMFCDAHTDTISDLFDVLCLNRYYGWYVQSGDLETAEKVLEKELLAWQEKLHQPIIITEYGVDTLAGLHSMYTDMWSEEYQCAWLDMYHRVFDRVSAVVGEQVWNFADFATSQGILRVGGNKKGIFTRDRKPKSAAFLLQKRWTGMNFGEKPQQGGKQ

## O=C(O)[C@H]1O[C@@H](Oc2ccc([N+](=O)[O-])cc2)[C@H](O)[C@@H](O)[C@@H]1O [PNPG]
BuGUS
  absorbance of p-nitrophenol at 410 nm: PNPG kinetic studies with each enzyme at its optimum pH
BdGUS
  absorbance of p-nitrophenol at 410 nm: PNPG kinetic studies with each enzyme at its optimum pH
EcGUS
  absorbance of p-nitrophenol at 410 nm: E. coli and Eu. eligens GUS are remarkably efficient at PNPG processing
PmGUS
  absorbance of p-nitrophenol at 410 nm: PNPG kinetic studies with each enzyme at its optimum pH
EeGUS
  absorbance of p-nitrophenol at 410 nm: E. coli and Eu. eligens GUS are remarkably efficient at PNPG processing
BfGUS
  absorbance of p-nitrophenol at 410 nm: PNPG kinetic studies with each enzyme at its optimum pH

— article PMC5533298 (Structure (London, England : 1993), 2017)
